Assay results published in publication PMC12040169 (PLOS Biology, 2025).

Test: in vitro
Details: human, hela cells, % viability

O=C(C1=C(O)C(=O)N(CCCn2ccnc2)C1c1ccncc1)c1ccccc1 (stereo not drawn) [CBK264527] showed a viability at 28.5 h, 10 µM of 91.6%.

For O=C(C1=C(O)C(=O)N(CCCN2CCOCC2)C1c1cccnc1)c1ccco1 (stereo not drawn) [CBK264528], the viability at 28.5 h, 10 µM was 102%.

With O=C(CC1S/C(=N/N=C/c2cn(Cc3ccccc3)c3ccccc23)NC1=O)Nc1ccccc1 (stereo not drawn) [CBK264529] the viability at 28.5 h, 10 µM was 84%.

CN(C)CCCN1C(=O)C(O)=C(C(=O)c2ccc(F)cc2)C1c1cccnc1 (stereo not drawn) [CBK264531] gave a viability at 28.5 h, 10 µM of 107%.

With N#Cc1c(NC(=O)c2cc(S(=O)(=O)N3CCOCC3)cs2)sc2c1CCCC2 [CBK264532] the viability at 28.5 h, 10 µM was 102%.

Work on Cc1ccc(C(=O)NCC(=O)O)cc1S(=O)(=O)N1CCOCC1 [CBK264534] yielded a viability at 28.5 h, 10 µM of 90.9%.

With COC(=O)CCN(C)CCC(=O)OC [CBK264539C] the viability at 28.5 h, 10 µM was 95.4%.

With COc1ccc(C2C(C(=O)c3ccco3)=C(O)C(=O)N2CCN2CCOCC2)cc1OC (stereo not drawn) [CBK264544] the viability at 28.5 h, 10 µM was 98.8%.

In the case of O=C(Oc1cccc2cccnc12)c1cccc(S(=O)(=O)Oc2cccc3cccnc23)c1 [CBK264545], the viability at 28.5 h, 10 µM is reported as 58.4%.

With CC(C)c1ccc(C2C(C(=O)c3ccco3)=C(O)C(=O)N2CCCN(C)C)cc1 (stereo not drawn) [CBK264549] the viability at 28.5 h, 10 µM was 94.8%.

In the case of O=C(NCCc1c[nH]c2ccccc12)c1cc2c(ccc3ccccc32)oc1=O [CBK264550], the viability at 28.5 h, 10 µM is reported as 91.5%.

Work on O=C(Nc1sc2c(c1C(=O)O)CCCC2)c1cc2ccccc2o1 [CBK264551] yielded a viability at 28.5 h, 10 µM of 91%.

O=C(O)CCCN1C(=O)/C(=C\c2ccccn2)SC1=S [CBK264552] gave a viability at 28.5 h, 10 µM of 92.4%.

In the case of O=C(Nc1ccccc1O)c1cc(S(=O)(=O)N2CCCCCC2)ccc1Cl [CBK264554], the viability at 28.5 h, 10 µM is reported as 89.1%.

O=C(NCCCN1CCOCC1)c1ccncc1 [CBK264561F] showed a viability at 28.5 h, 10 µM of 110%.

COc1ccc(C2=NN(c3ccc([N+](=O)[O-])cc3)C(=O)/C2=C\NCCN2CCOCC2)cc1 [CBK264563] showed a viability at 28.5 h, 10 µM of 114%.

In the case of O=C(C1=C(O)C(=O)N(CCCN2CCOCC2)C1c1ccc(Cl)c(Cl)c1)c1cccs1 (stereo not drawn) [CBK264565], the viability at 28.5 h, 10 µM is reported as 104%.

c1cncc(-c2nc(NCCN3CCOCC3)c3ccccc3n2)c1 [CBK264566C] gave a viability at 28.5 h, 10 µM of 91%.

Work on O=C(Nc1cccnc1)c1cc(S(=O)(=O)N2CCCCC2)c(Cl)cc1Cl [CBK264567] yielded a viability at 28.5 h, 10 µM of 91.9%.

Molecule CC(=O)C1=C(O)C(=O)N(CCN2CCOCC2)C1c1cccc([N+](=O)[O-])c1 (stereo not drawn) [CBK264568] has a viability at 28.5 h, 10 µM of 98%.

O=C(COc1ccc(C2CCCCC2)cc1)Nc1cccc(-c2nc3ncccc3o2)c1 [CBK264569] showed a viability at 28.5 h, 10 µM of 90.9%.

With O=C(C1=C(O)C(=O)N(CCN2CCOCC2)C1c1cccnc1)c1ccco1 (stereo not drawn) [CBK264570] the viability at 28.5 h, 10 µM was 97.4%.

Molecule O=C(C1=C(O)C(=O)N(CCCn2ccnc2)C1c1cccc([N+](=O)[O-])c1)c1ccc(F)cc1 (stereo not drawn) [CBK264571] has a viability at 28.5 h, 10 µM of 97.8%.

In the case of N#Cc1nc(-c2ccccc2)oc1NCCN1CCCCC1 [CBK264573], the viability at 28.5 h, 10 µM is reported as 93.5%.

Molecule COc1cc(/C=c2\sc3nc(-c4ccccc4OC(C)=O)nn3c2=O)ccc1OCc1ccccc1 [CBK264575] has a viability at 28.5 h, 10 µM of 99.2%.

For N#Cc1c(NC(=O)c2cc(S(=O)(=O)N3CCCCC3)c(Cl)cc2Cl)sc2c1CCCC2 [CBK264579], the viability at 28.5 h, 10 µM was 104%.

O=[N+]([O-])c1ccc(CSc2nnc(-c3cccnc3)n2Cc2ccco2)cc1 [CBK264580] gave a viability at 28.5 h, 10 µM of 106%.

Molecule O=C(O)CC(C(=O)Nc1ccc(Cl)cc1)C1CCCO1 (stereo not drawn) [CBK264583] has a viability at 28.5 h, 10 µM of 94.2%.

Cc1sc2nc(SCc3cc(O)[nH]n3)nc(N)c2c1C [CBK264585] showed a viability at 28.5 h, 10 µM of 88.6%.

For Cc1cccc(NC(=O)CN2C(=O)S/C(=C\c3cc(C)n(-c4ccc(N(C)C)cc4)c3C)C2=O)c1 [CBK264586], the viability at 28.5 h, 10 µM was 96.9%.

Work on Cc1ccc(S(N)(=O)=O)cc1C(=O)OCC(=O)c1ccccc1 [CBK264588] yielded a viability at 28.5 h, 10 µM of 113%.

For Cc1ccc(S(=O)(=O)CC(CN2CCOCC2)N2CCOCC2)cc1 (stereo not drawn) [CBK264590], the viability at 28.5 h, 10 µM was 99.1%.

Molecule O=C(O)CC1S/C(=N/N=C/c2ccc(-c3ccc(Cl)cc3)o2)NC1=O (stereo not drawn) [CBK264595] has a viability at 28.5 h, 10 µM of 125%.
